Data as given in patent US20230149428A1, “METHOD OF TREATING GENE THERAPY ASSOCIATED TOXICITY WITH ANTIBIOTICS” (Asklepios BioPharmaceutical, Inc., priority 2020, published 2023).

Key:
[1] = tested on: Th1- and Th2-related chemokines; settings: upon stimulation; Kuo et al. 2019; cited from earlier work
[2] = tested on: IL-8 levels and neutrophil accumulation and activation; settings: refractory asthma patients; Simpson et al. 2008; cited from earlier work
[3] = tested on: liver enzymes AST and ALT; test: Liver transaminases AST/ALT after rAAV-Luc, tetracycline pretreatment (Example 2); assay type: in vivo, piglets; settings: 25 mg/kg/day tetracycline i.v. 4 hours prior to 2×10^12 particles rAAV-Luc
Procedure: (§1) The effect of antibiotic pretreatment on the rAAV particle-induced toxicity e.g., inflammatory response and liver enzyme levels (e.g., toxicity) is examined by measuring levels of endogenous cytokines and liver enzymes AST and ALT in animals injected with rAAV8-Luc particles operably encoding luciferase nucleic acid.
(§2) Female piglets (n=5) are injected intravenously with either PBS alone (antibiotic control) or 25 mg/kg/day tetracycline in PBS 4 hours prior to intravenous administration of PBS alone (viral control) or 2×10^12 particles of rAAV-Luc vector. Small amounts of blood are collected aseptically obtained through the jugular vein at 30 minutes, 60 minutes, 90 minutes, 120 minutes, 1 day, 3 days, 10 days, 21 days, 28 days, 42 days, 60 days post-rAAV-Luc treatment, and serum is isolated. The serum is then analyzed for an inflammatory cytokine profile using the BD™ Cytometric Bead Array Mouse Inflammation Kit (BD™ CBA Mouse Inflammation Kit, BD Biosciences), specifically measuring levels of IL-2, IL-6, IL-7, IL-10, MCP-I, IFNγ, IP-10 and MIG. Liver transaminases e.g., AST and ALT are also measured at the above mentioned timepoints.

[4] = tested on: IL-2, IL-6, IL-7, IL-10, MCP-I, IFNγ, IP-10 and MIG; test: Serum inflammatory cytokine profile after rAAV-Luc, tetracycline pretreatment (Example 2); assay type: in vivo, piglets
Procedure: as §1, §2

[5] = tested on: liver transaminases AST and ALT; test: Liver transaminases AST/ALT after rAAV-Luc, tapering prednisone and tetracycline (Example 3); assay type: in vivo, piglets; settings: tetracycline 5-50 mg/kg/day, alone or with tapering prednisone from 25 mg/kg
Procedure: The effect of antibiotic treatment on rAAV particle-induced toxicity is examined by measuring levels of endogenous cytokines and liver transaminases e.g., AST and ALT in animals injected with rAAV-Luc particles operably encoding luciferase nucleic acid.
Female piglets (n=5) are pretreated with 25 mg/kg/day prednisolone 24 hours prior to rAAV8-luc (2×10^12 particles of rAAV-Luc particles) administration and then continued for 4 weeks. Then each week the prednisone is tapered by 5 mg/kg until no prednisone and continued for 15 weeks post AAV administration (2×10^12 particles per piglet). Tetracycline is then administered at 15 mg/kg/day for 16-24 weeks. Small amounts of blood are collected aseptically obtained through the jugular vein at 2 hrs, 4 hrs, 1 day, 3 days, 10 days, 21 days, 4 weeks, 8 weeks, 15 weeks, 24 weeks post-rAAV-Luc treatment, post-rAAV-Luc treatment, and serum is isolated.

**Q.** Which “effect on Th1- and Th2-related chemokines” value [1] does the source give for `CC[C@H]1OC(=O)[C@H](C)[C@@H](O[C@H]2C[C@@](C)(OC)[C@@H](O)[C@H](C)O2)[C@H](C)[C@@H](O[C@@H]2O[C@H](C)C[C@H](N(C)C)[C@H]2O)[C@](C)(O)C[C@@H](C)CN(C)[C@H](C)[C@@H](O)[C@]1(C)O` [Azithromycin] here?
**A.** Its value is “suppress Th1- and Th2-related chemokines”.

**Q.** Which “effect on IL-8 levels and neutrophil accumulation and activation” value [2] does the source give for `CC[C@H]1OC(=O)[C@H](C)[C@@H](O[C@H]2C[C@@](C)(OC)[C@@H](O)[C@H](C)O2)[C@H](C)[C@@H](O[C@@H]2O[C@H](C)C[C@H](N(C)C)[C@H]2O)[C@](C)(OC)C[C@@H](C)C(=O)[C@H](C)[C@@H](O)[C@]1(C)O` [clarithromycin, Clarithromycin] here?
**A.** Its value is “modulate IL-8 levels and Neutophil accumulation and activation”.

**Q.** Which results are given for `CN(C)[C@@H]1C(O)=C(C(N)=O)C(=O)[C@@]2(O)C(O)=C3C(=O)c4c(O)cccc4[C@@](C)(O)[C@H]3C[C@@H]12` [tetracycline, Tetracycline]?
**A.** AST/ALT ratio with time [3]: less than 1; inflammatory response (cytokine levels) resulting from rAAV-Luc vs antibiotic control ([4]; 25 mg/kg/day tetracycline i.v. 4 hours prior to 2×10^12 particles rAAV-Luc i.v.): significantly reduce; inflammatory response, tetracycline followed by PBS alone ([4]; 25 mg/kg/day tetracycline i.v., no vector): no inflammatory response; AST/ALT levels vs control piglets [5]: decreased significantly
